Read-outs that look alike come from different tables or passages of the source.

The text below walks through data of patent publication US20240024490A1, “BIFUNCTIONAL MOLECULES FOR SELECTIVE MODIFICATION OF TARGET SUBSTRATES” (The Broad Institute, Inc., priority 2021, published 2024).

One data set addresses T1, Recombinant PKCζ (Homo sapiens, UniProt Q05513).
T1 sequence (Q05513 1-592): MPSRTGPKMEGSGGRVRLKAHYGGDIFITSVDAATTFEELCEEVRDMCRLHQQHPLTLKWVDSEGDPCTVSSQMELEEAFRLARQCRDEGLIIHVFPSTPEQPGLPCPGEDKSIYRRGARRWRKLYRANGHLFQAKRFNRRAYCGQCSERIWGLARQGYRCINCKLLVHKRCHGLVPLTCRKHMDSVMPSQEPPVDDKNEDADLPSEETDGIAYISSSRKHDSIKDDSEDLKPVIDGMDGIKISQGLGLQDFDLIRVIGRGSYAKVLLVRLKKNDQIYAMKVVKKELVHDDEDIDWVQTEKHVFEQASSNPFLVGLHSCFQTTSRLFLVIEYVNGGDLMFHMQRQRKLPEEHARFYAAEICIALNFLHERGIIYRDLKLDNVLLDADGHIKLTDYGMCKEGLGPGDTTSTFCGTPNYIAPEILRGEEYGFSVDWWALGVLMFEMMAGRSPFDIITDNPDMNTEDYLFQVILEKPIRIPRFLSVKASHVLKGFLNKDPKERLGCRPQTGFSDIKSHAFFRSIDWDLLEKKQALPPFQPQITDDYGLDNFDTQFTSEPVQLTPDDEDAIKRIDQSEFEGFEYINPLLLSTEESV
As to conditions: cited from earlier work.

A further data set deals with K562 cells. Put plainly: K562 cell viability. In kind it is cell-based.
The next data set concerns the target T2, Aurora A (Homo sapiens, UniProt O14965).
T2 sequence (O14965 1-403): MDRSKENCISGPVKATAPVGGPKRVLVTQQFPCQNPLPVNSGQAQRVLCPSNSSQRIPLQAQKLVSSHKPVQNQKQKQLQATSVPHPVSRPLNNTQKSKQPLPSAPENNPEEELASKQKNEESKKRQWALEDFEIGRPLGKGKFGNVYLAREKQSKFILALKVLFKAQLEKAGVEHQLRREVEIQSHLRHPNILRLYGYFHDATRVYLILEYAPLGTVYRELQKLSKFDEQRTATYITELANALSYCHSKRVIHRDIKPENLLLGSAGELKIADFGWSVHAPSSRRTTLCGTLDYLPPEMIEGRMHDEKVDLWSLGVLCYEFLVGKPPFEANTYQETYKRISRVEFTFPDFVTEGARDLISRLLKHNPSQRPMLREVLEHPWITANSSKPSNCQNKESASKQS
As to conditions: cited from earlier work; for Ki: read-out: Calculated Ki.

Data set [1] has as its target T3, PDK1 (Homo sapiens, UniProt O15530).
T3 sequence (O15530 1-556): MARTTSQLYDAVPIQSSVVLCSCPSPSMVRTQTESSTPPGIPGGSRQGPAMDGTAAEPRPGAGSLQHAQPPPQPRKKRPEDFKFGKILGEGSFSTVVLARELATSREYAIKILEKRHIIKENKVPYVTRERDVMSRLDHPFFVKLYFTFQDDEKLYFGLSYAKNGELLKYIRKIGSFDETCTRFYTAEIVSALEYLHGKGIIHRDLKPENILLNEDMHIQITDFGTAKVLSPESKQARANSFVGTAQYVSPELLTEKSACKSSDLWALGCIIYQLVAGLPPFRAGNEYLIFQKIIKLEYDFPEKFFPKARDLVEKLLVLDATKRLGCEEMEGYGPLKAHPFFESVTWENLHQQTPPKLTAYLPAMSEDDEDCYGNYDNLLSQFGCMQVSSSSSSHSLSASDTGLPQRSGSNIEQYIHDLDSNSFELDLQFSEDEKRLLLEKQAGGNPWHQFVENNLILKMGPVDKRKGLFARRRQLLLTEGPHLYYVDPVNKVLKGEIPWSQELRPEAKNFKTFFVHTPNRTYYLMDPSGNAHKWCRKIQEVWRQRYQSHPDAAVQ
As to conditions: cited from earlier work.

For data set [2] the following is noted: cited from earlier work.
The target of another data set is JNK 2 (Homo sapiens, UniProt P45984). The note with it: cited from earlier work.
Sequence of JNK 2 (P45984 whole entry, species assumed): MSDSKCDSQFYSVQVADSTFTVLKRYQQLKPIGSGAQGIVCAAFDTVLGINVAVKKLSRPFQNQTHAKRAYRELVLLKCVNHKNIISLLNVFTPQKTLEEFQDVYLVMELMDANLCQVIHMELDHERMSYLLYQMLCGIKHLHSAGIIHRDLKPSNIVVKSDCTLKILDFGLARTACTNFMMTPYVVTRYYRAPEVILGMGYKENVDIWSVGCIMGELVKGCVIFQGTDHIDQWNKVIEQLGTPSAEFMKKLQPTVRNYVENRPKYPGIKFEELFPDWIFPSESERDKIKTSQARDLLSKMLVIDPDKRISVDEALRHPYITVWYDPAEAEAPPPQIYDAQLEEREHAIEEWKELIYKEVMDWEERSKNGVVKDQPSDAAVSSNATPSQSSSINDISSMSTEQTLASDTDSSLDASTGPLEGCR
The target of another data set is JNK 1 (Homo sapiens, UniProt P45983). As to conditions: cited from earlier work.
Sequence of JNK 1 (P45983 whole entry, species assumed): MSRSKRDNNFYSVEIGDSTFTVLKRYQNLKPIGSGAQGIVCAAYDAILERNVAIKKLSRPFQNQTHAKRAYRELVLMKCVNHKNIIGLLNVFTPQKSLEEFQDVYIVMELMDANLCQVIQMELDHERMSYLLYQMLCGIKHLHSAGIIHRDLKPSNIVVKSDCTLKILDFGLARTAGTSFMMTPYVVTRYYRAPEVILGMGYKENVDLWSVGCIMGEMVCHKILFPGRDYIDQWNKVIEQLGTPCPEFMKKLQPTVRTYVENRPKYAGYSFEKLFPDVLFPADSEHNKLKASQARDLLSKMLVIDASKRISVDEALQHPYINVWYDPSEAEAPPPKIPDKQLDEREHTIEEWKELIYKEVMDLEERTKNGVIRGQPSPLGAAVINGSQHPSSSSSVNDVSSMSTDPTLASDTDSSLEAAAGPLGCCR
Data set [3] deals with Z-138 cells. The data set is described as follows: Z-138 cell viability. In kind it is cell-based. An excerpt:
Since PKC phosphorylates membrane-associated BTK with the C1 domain buried in the lipid bilayer, [5] Applicants aimed to characterize PHICS-mediated BTK phosphorylation by PKC in vitro in the absence of lipid bilayer. […] PEG4 linker, and benzolactam (FIG. 73A). […] One of the modified residues (T410) is located close to the ATP binding pocket, whereas other sites (S310, 5323, and 5378) are on the loops of the SH2 domain in BTK. […] To explore the biological consequences of these neo-phosphorylations, Applicants adopted a genetic approach where the phosphorylated Ser/Thr residues were mutated to aspartic acid, a phosphomimetic, and alanine as a control. […] [8] […] The following studies will be focused on further optimization of the anti-cancer potency of BTK and BCR-ABL targeting PKC-based PHICS molecules as well as on the detailed investigation of their mechanism of action.
Applicants assessed the viability of Z-138 cells after introduction of small molecules at various concentrations, see FIGS. 67-71. […]
Applicants found a non-linear dependency on Z-138 cell viability as a function of linker length and composition.

Data set [4] deals with Z-138 cells. The data set is described as follows: Z-138 cell viability. In kind it is cell-based. As to conditions: FIGS. 67-71.
A further data set has as its system ABL myristoyl domain. As to conditions: cited from earlier work.
Data set [5] concerns the target T3, PDK1. The note with it: ITC; cited from earlier work. (Isothermal titration calorimetry measures the heat released or taken up as one component is titrated into another.)
A further data set has as its system HSP90. As to conditions: cell free assay; cited from earlier work.

With `CC(C)(C)C1=NN(c2ccccc2F)C(c2ccc(O)cc2)C1` (stereo not shown) [1m], the “cell-free assay, % inhibition at 62.5 μM” value at Recombinant PKCζ was 57.6%.

Turning to `CCCCN(Cc1ccc(-c2ccccc2-c2nn[nH]n2)cc1)c1nc(C)cc(C)n1` [Cpd3], the concentration for a half-maximal effect (EC50) (as a rule, the concentration needed to bring the measured effect to its halfway point) in the data set on K562 cells is about 0.31 µM.

With `O=C(O)c1cc(-c2cccc(C(F)(F)F)c2)nc2ccccc12` [compound 34], on Aurora A, the half-inhibitory concentration (IC50) (commonly the concentration that gives 50% inhibition) was 26.5 µM; the Ki (in general, the dissociation constant of the complex between target and ligand, obtained from inhibition or displacement) was 5.7 µM.

On to `CCc1ccc(CC/C(=C/C(=O)O)c2ccccc2)cc1` [10Z], for which the AC50 (usually the midpoint of the concentration-response curve, whichever way the signal moves) at PDK1 [1] (read-out: AC50) is over 50 µM.

For the compound `CC(C)(C)C1=NN(c2ccc(C(F)(F)F)cc2)C(c2ccc(O)cc2)C1` (stereo not shown) [1d], the “cell-free assay, % inhibition at 62.5 μM” value at Recombinant PKCζ was 94.2%.

Consider `O=C1NC(=O)C(c2cn(-c3ccccc3)nc2-c2ccc(F)cc2)N1` (stereo not shown) [Cpd1], for which the EC50 is at least 10 µM with K562 cells (unit inferred) and over 10 µM with K562 cells (unit inferred, listed as Cpdl).

Consider `O=C(NOCC(O)CO)c1ccc(F)c(F)c1Nc1ccc(I)cc1F` (racemic) [Compound 33], for which the “Sol (pH 6.5)” value in data set [2] is recorded as 147 μg/mL.

In the case of `CC(C)(C)C1=NN(c2ccc(Cl)cc2Cl)C(c2ccc(O)cc2)C1` (stereo not shown) [1n], the “cell-free assay, % inhibition at 62.5 μM” value at Recombinant PKCζ was 71.0%.

`CC(C)(C)C1=NN(c2ccccc2Cl)C(c2ccc(O)cc2)C1` (stereo not shown) [1l]: the “cell-free assay, % inhibition at 62.5 μM” value on Recombinant PKCζ was 57.1%.

Regarding `CC(C)(C)C1=NN(c2ccc(C(=O)O)cc2)C(c2ccc(O)cc2)C1` (stereo not shown) [1g], on Recombinant PKCζ, the “cell-free assay, % inhibition at 62.5 μM” value is given as 47.9%.

Regarding `CCOc1nc(C(=O)NCC2CCN(Cc3sc(-c4ccccc4)nc3C)CC2)cc(N)c1C#N` [compound 6], the IC50 at JNK 2 was under 0.0026 µM; on JNK 1 it was under 0.0018 µM.

With `CCCN(Cc1ccc(-c2ccccc2-c2nn[nH]n2)cc1)c1nc2ccccc2s1` [Cpd2], the EC50 in the data set with K562 cells was about 1 µM.

Consider `O=C(O)c1cc(-c2cccc(F)c2)nc2ccccc12` [compound 26], for which, on Aurora A, the IC50 was 75.9 µM and the Ki is 16.5 µM.

As for `Cc1ccc(N2N=C(C(C)(C)C)CC2c2ccc(O)cc2)c(C)c1` (stereo not shown) [1p], the “cell-free assay, % inhibition at 62.5 μM” value on Recombinant PKCζ is given as 59.9%.

`CNCc1ccc(COc2ccc3c(c2)N(C)C(C(C)C)C(=O)NC(CO)C3)cc1` (stereo not shown) [benzolactam]: the “effect on Z-138 cell viability” value with Z-138 cells [3] and in the data set with Z-138 cells [4] was “did not have any significant effect” each time.

As to `CCCN(Cc1ccc(-c2ccccc2-c2nn[nH]n2)cc1)c1nc2ccccc2s1` [compound 2], the pIC50 (commonly the negative decadic logarithm of the IC50, by convention in mol/L) in the data set with ABL myristoyl domain is given as 6.5.

In the case of `O=C(O)/C=C(\CCc1ccc(F)cc1)c1ccccc1` [4E], the AC50 result at PDK1 [1] is “n.e”.

For the compound `O=C(NOC[C@H](O)CO)c1ccc(F)c(F)c1Nc1ccc(I)cc1F` [Mirdametinib], in data set [2], the “Sol (pH 6.5)” value is listed as 190 μg/mL.

Regarding `C=CC(=O)N1CCC[C@@H](n2nc(-c3ccc(Oc4ccccc4)cc3)c3c(N)ncnc32)C1` [Ibrutinib], the “effect on Z-138 cell viability” value with Z-138 cells [3] and in the data set on Z-138 cells [4] was “did not have any significant effect” throughout.

`CC(C)(C)C1=NN(c2ccc(F)cc2F)C(c2ccc(O)cc2)C1` (stereo not shown) [1o]: the “cell-free assay, % inhibition at 62.5 μM” value at Recombinant PKCζ is 68.0%.

With `Cc1ccc(CC/C(=C\C(=O)O)c2ccccc2)c(Cl)c1` [8E], the AC50 entry on PDK1 [1] was “n.e”.

On to `O=C(NOCC(O)CO)c1ccc(F)c(F)c1Nc1ccc(I)cc1F` (stereo not shown) [Compound 35], for which the “Sol (pH 6.5)” value in [2] is reported as 255, μg/mL.

In the case of `O=C(O)/C=C(/CCc1ccc(Br)cc1)c1ccccc1` [5Z], at PDK1 [5], the TΔS was 3.20 kcal/mol, the ΔG is -6.32 kcal/mol, the ΔH was -3.07 kcal/mol and the ΔH/ΔG is recorded as 46.6%. Also, the AC50 at PDK1 [1] (read-out: AC50) was 9.8 µM.

Turning to `CC(C)(C)C1=NN(c2ccc(Br)cc2)C(c2ccc(O)cc2)C1` (stereo not shown) [1c], the “cell-free assay, % inhibition at 62.5 μM” value at Recombinant PKCζ was 93.2%. Moreover, the concentration for half-maximal inhibition (IC50) on Recombinant PKCζ (read-out: cell-free assay, IC50 ± SD) was 11.4 ± 1.25 µM.

For the compound Alvespimycin, the IC50 in the data set with HSP90 was 0.062 µM.

For the compound `O=C(O)/C=C(/CCc1c[nH]c2ccccc12)c1ccccc1` [13Z], at PDK1 [5], the TΔS was 2.60 kcal/mol, the ΔG was -6.73 kcal/mol, the ΔH was -4.09 kcal/mol and the ΔH/ΔG is on record as 60.8%. On PDK1 [1] (read-out: AC50), the AC50 is 7.6 µM.

Take `CNc1ncc2c(n1)N(C1CCC(O)C1)C(=O)N(c1cc(NC(=O)c3ccc(CN4CCN(C)CC4)c(C(F)(F)F)c3)ccc1C)C2` (stereo not shown) [compound 9]: the IC50 on JNK 2 is 1.3 µM; at JNK 1, 0.97 µM.

Turning to `CC(C)c1ccc(N2N=C(C(C)(C)C)CC2c2ccc(O)cc2)cc1` (stereo not shown) [1f], at Recombinant PKCζ, the “cell-free assay, % inhibition at 62.5 μM” value was 54.9%.

As to `O=C(Nc1nnc(SCc2ccc([N+](=O)[O-])cc2)s1)c1ccccc1Cl` [6E], on PDK1 [1], the AC50 result is “n.e”.

In the case of `O=C(O)/C=C(/CCc1cccc(Cl)c1)c1ccccc1` [3Z], the AC50 on PDK1 [1] (read-out: AC50) was 9.5 µM.

With `O=C(O)/C=C(/CCc1ccc2ccccc2c1)c1ccccc1` [12Z], at PDK1 [5], the TΔS is reported as 1.96 kcal/mol, the ΔG is -6.67 kcal/mol, the ΔH was -4.56 kcal/mol and the ΔH/ΔG is on record as 68.3%. For the same compound, the concentration at half-maximal activity (AC50) at PDK1 [1] (read-out: AC50) is 6 µM.

Regarding `O=C(O)/C=C(/CCc1ccc(C(F)(F)F)cc1)c1ccccc1` [6Z], at PDK1 [5], the TΔS is 4.79 kcal/mol, the ΔG is -6.73 kcal/mol, the ΔH was -1.84 kcal/mol and the ΔH/ΔG was 26.5%. Besides, on PDK1 [1] (read-out: AC50), the concentration at half-maximal activity (AC50) is 7.1 µM.

As for `CCc1ccc(CC/C(=C\C(=O)O)c2ccccc2)cc1` [10E], on PDK1 [1], the AC50 entry was “n.e”.

With `CC(C)(C)C1=NN(c2cccc(F)c2)C(c2ccc(O)cc2)C1` (stereo not shown) [1i], at Recombinant PKCζ, the “cell-free assay, % inhibition at 62.5 μM” value was 98.1%.
